Experimental findings from patent publication US11931404B2, “Use of ultrarapid acting insulin” (MannKind Corporation, priority 2014, dated 2024) are described below.

This experiment concerns subjects with type 2 diabetes. In words: Meal challenge test, Amendment 1 (A1): blood glucose, endogenous glucose production, glucose disappearance. It is filed as in vivo, human. The conditions noted are these: 60 U and 90 U insulin-FDKP groups, 10 U lispro, FIG. 11. The protocol:
Following the completion of the meal challenge, the data was analyzed as per the statistical analysis plan. […] The study was amended (A1) and included 12 subjects (10 were reenrolled from the first meal challenge), and only two treatments, which were 10 U lispro and 60 and 90 U TI. The doses were selected based on the relative bioavailability observed following the first meal challenge (OP), where under an assumption of linear kinetics, 10 U lispro and 60 U TI would result in similar exposure. The 90 U dose group was included to assess the effect of the highest dose group of TI studied in Phase 3 trials. Six of the 12 subjects received 60 U TI and the other 6 subjects received 90 U TI. All 12 subjects received 10 U lispro in a crossover fashion. Methods and results below are described in terms of the Original Protocol (OP), which includes the meal challenge in 18 subjects with three treatments (EXUBERA®, lispro and TI) and Amendment 1 (A1), which includes 12 subjects treated with only TI and lispro. […] The subjects were screened and evaluated before, during and after the experiments and their data analyzed as described below. […] Blood glucose concentrations were measured at regular intervals from arterialized venous blood samples. […]

As for insulin lispro, the “time at which glucose disappearance rate peaked after dosing” value is given as “about 100 minutes”.
